US10874743B2, “IRAK degraders and uses thereof” (Kymera Therapeutics, Inc., priority 2017, dated 2020)

Legend:
[1] = molecular target: T1, IRAK4 (Homo sapiens, UniProt Q9NWZ3); experiment: OCI-LY-10 MSD assay for IRAK4 DC50; format: cell-based; design: endogenous in cells; host or cells: OCI-LY10; conditions: OCI-LY10 cells, 4 hr incubation, concentration required to degrade 50% of protein
T1 sequence (Q9NWZ3 1-460): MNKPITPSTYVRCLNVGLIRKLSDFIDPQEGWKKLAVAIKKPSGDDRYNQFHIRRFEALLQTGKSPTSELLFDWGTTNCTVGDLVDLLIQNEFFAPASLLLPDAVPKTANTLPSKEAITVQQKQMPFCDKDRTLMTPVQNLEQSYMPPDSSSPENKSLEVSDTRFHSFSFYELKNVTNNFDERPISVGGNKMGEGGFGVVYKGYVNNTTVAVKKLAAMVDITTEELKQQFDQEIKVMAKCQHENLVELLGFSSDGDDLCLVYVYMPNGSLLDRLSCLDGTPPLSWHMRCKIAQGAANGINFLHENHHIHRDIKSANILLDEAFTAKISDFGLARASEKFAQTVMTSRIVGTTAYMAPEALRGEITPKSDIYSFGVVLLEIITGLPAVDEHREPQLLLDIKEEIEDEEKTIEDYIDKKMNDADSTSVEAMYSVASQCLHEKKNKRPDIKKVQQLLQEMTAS
Procedure: A MSD assay was run to determine the concentration of compound required to degrade 50% of protein (DC50).
Day 1 • Compounds were reconstituted to 10 mM in stock solutions. The stock solutions were diluted to 5 mM and 45 μL of each dilution was transferred to a 384 pp-plate. A 3 fold, 8-point serial dilution was performed by transferring 15 μL of compound into 30 μL DMSO using Janus. • 20 nL of each compounds were added into each well of a 96-well plate (Corning3799). • OCI-Ly10 cells were seeded into the 96-well plate at 3.0*10e^5 cells/100 μL/well. • The cell plate was shaken at 720 rpm for 5 min and incubated for 4 hr. • The 100 μL of cells were transferred into the 96-PCR plate and spun down at high speed for 5 mins. • The supernatant was discarded and 100 μL of RIPA lysis buffer with proteinase inhibitors was added per well. The plate was then sealed and shaken at 600 rpm and 4° C. for about 20 min. • The plate was then spun down at high speed (about 3200 g) for 30 min and then frozen in a −80° C. fridge. • A bare MSD plate (L15XA-3) was coated with 2 μg/mL of capture antibody (mouse Anti-IRAK4 antibody [2H9], ab119942) in PBS to 40 μL/well and incubated overnight at 4° C.
Day 2 • The MSD coated plate was washed 3× (150 μL/well) with 1×TBST (CST #9997S). • The MSD plate was then blocked with 150 μL of blocking buffer [3% Blocker A (MSD, R93BA-4) in TBST]/well and shaken for 1 hr at R^† and 600 rpm. • The MSD plate was washed 3× (150 μL/well) with 1×TBST. The sample RIPA lysates were then added to the MSD plate (50 μL/well) and shaken for 1 hr at R^† and 600 rpm. • The MSD plate was washed 3× (150 μL/well) with 1×TBST and the primary detection antibody (Rabbit Anti-IRAK4 antibody [Y279], ab32511) was added to a final concentration of 1 μg/ml with 25 μL/well. The plate was then shaken for 1 hr at RT and 600 rpm. • The MSD plate was washed 3× (150 μL/well) with 1×TBST and the secondary detection antibody, SULFO-TAG anti-species antibody (Anti Rabbit Antibody (R32AB-5) MSD, R32AB-1) was added to a volume of 25 μL/well at a final concentration of 1 jag/ml. The plate was then shaken for 1 hr at RT and 600 rpm. • The MSD plate was then washed 3× (150 μL/well) with 1×TBST. • lx MSD reading buffer was then added (150 μL/well) and the plate was diluted with 4× water. (MSD, R92TC-2) • The MSD instrument was then read.
Data Analysis • The remaining activity was calculated following the formula below:
Calculate • The DC50 was calculated by fitting the Curve using Xlfit (v5.3.1.3), equation 201: Y=Bottom+(Top−Bottom)/(1+10^((Log IC50−X)*HillSlope))
OCI-LY-10 DC50 results. The letter codes for IRAK4 DC50 indicate the concentration of compound required to degrade 50% of protein: A (<0.05 μM), B (0.05-0.1 μM), C (0.1-0.5 μM), D (0.5-1.0 μM), and E (>1.0 μM).

[2] = molecular target: T1, IRAK4; experiment: OCI-LY-10 degradation assay (western blot, % IRAK4 degraded after 4 hours); format: cell-based; design: endogenous in cells; host or cells: OCI-LY10; conditions: OCI-LY10 cells, 4 hours; for OCI-LY10 % IRAK4 Degradation (0.01 uM): 0.01 uM compound; for OCI-LY10 % IRAK4 Degradation (0.1 uM): 0.1 uM compound; for OCI-LY10 % IRAK4 Degradation (1 uM): 1 uM compound
In short: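 OCI-LY10 cells (RPMI-1640, 20% FBS, 55 μM 2-ME) treated with compound at 0.003-10 μM final for 4 h at 37° C, then lysed in RIPA buffer. IRAK4 level read by fluorescent western blot (20-25 μg protein) and binned as % degraded: A >50%, B >20-50%, C <20%.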

Row | SMILES | DC50 [1] [nM] | OCI-LY10 % IRAK4 Degradation (0.01 uM) [2] | OCI-LY10 % IRAK4 Degradation (0.1 uM) [2] | OCI-LY10 % IRAK4 Degradation (1 uM) [2]
1 | Cn1cc(NC(=O)c2coc(-c3ccnc(NCC(F)(F)F)c3)n2)c(C(=O)NCCOCCOCCOCCOCCOCCNc2cccc3c2C(=O)N(C2CCC(=O)NC2=O)C3=O)n1 (centres unmarked) [I-214] | > 1000 |  |  | 
2 | O=C1CCC(n2c(=O)n(CCOCCOCCNC(=O)c3ccc(-n4cc(NC(=O)c5coc(-c6ccnc(NCC7CC7)c6)n5)c(C(F)F)n4)cc3)c3ccccc32)C(=O)N1 (centres unmarked) [I-251] | < 50 |  |  | 
3 | O=C1CCC(N2C(=O)c3ccc(NC4CCN(CCOCCNC(=O)c5ccc(-n6cc(NC(=O)c7coc(-c8ccnc(NCC9CC9)c8)n7)c(C(F)F)n6)cc5)CC4)cc3C2=O)C(=O)N1 (centres unmarked) [I-271] | 100 to 500 |  |  | 
4 | O=C1CCC(N2C(=O)c3cccc(N4CCN(CCOCCNC(=O)c5ccc(-n6cc(NC(=O)c7coc(-c8ccnc(NCC9CC9)c8)n7)c(C(F)F)n6)cc5)CC4)c3C2=O)C(=O)N1 (centres unmarked) [I-274] | 100 to 500 |  |  | 
5 | Cn1c(=O)n(C2CCC(=O)NC2=O)c2cccc(CCCOCCOCCNC(=O)c3ccc(-n4cc(NC(=O)c5coc(-c6ccnc(NCC(F)(F)F)c6)n5)c(C(F)F)n4)cc3)c21 (centres unmarked) [I-280] | < 50 |  |  | 
6 | O=C1CCC(N2C(=O)c3ccc(CCCNCc4ccc(-n5cc(NC(=O)c6coc(-c7ccncc7)n6)c(C(F)F)n5)cc4)cc3C2=O)C(=O)N1 (centres unmarked) [I-380] |  | C (<20% degradation) | C (<20% degradation) | C (<20% degradation)
7 | O=C1CCC(N2C(=O)c3ccc(CCCOCCNCc4ccc(-n5cc(NC(=O)c6coc(-c7ccncc7)n6)c(C(F)F)n5)cc4)cc3C2=O)C(=O)N1 (centres unmarked) [I-382] |  | C (<20% degradation) | C (<20% degradation) | B (>20-50% degradation)
8 | O=C1CCC(N2C(=O)c3cccc(OCc4cnnn4CCOCCOCCNCn4cc(NC(=O)c5coc(-c6ccnc(NCC7CC7)c6)n5)c(C(F)F)n4)c3C2=O)C(=O)N1 (centres unmarked) [I-383] |  | C (<20% degradation) | C (<20% degradation) | A (>50% degradation)
9 | O=C1CCC(N2C(=O)c3cccc(NC4CCN(CCOCCNCc5ccc(-n6cc(NC(=O)c7coc(-c8ccnc(NCC9CC9)c8)n7)c(C(F)F)n6)cc5)CC4)c3C2=O)C(=O)N1 (centres unmarked) [I-385] |  | C (<20% degradation) | B (>20-50% degradation) | B (>20-50% degradation)
10 | CC[C@@H]1[C@H](F)C(=O)N[C@@H]1COc1ncc(C#Cc2ccc(OCCOCCOCCOCCNc3cccc4c3C(=O)N(C3CCC(=O)NC3=O)C4=O)cc2)c2cc(C(N)=O)c(OC)cc12 (stereo partly drawn) [I-425, 4-[2-[4-[2-[2-[2-[2-[[2-(2,6-Dioxo-3-piperidyl)-1,3-dioxo-isoindolin-4-yl]amino]ethoxy]ethoxy]ethoxy]ethoxy]phenyl]ethynyl]-1-[[(2S,3S,4S)-3-ethyl-4-fluoro-5-oxo-pyrrolidin-2-yl]methoxy]-7-methoxy-isoquinoline-6-carboxamide] |  | B (>20-50% degradation) | A (>50% degradation) | A (>50% degradation)
11 | O=C1CCC(N2C(=O)c3cccc(NCCOCCOCCN4Cc5ccc(-n6cc(NC(=O)c7coc(-c8ccnc(NCC9CC9)c8)n7)c(C(F)(F)F)n6)cc5C4)c3C2=O)C(=O)N1 (centres unmarked) [I-426, 2-[2-(Cyclopropylmethylamino)-4-pyridyl]-N-[1-[2-[2-[2-[2-[[2-(2,6-dioxo-3-piperidyl)-1,3-dioxo-isoindolin-4-yl]amino]ethoxy]ethoxy]ethyl]isoindolin-5-yl]-3-(trifluoromethyl)pyrazol-4-yl]oxazole-4-carboxamide] |  | C (<20% degradation) | C (<20% degradation) | C (<20% degradation)
12 | NC(=O)c1nn(CC#CC#CCOCCOCCNc2cccc3c2C(=O)N(C2CCC(=O)NC2=O)C3=O)cc1NC(=O)c1coc(-c2ccnc(NCC3CC3)c2)n1 (centres unmarked) [I-434, N-[3-carbamoyl-1-[6-[2-[2-[[2-(2,6-dioxo-3-piperidyl)-1,3-dioxo-isoindolin-4-yl]amino]ethoxy]ethoxy]hexa-2,4-diynyl]pyrazol-4-yl]-2-[2-(cyclopropylmethylamino)-4-pyridyl]oxazole-4-carboxamide] |  | C (<20% degradation) | C (<20% degradation) | C (<20% degradation)

Second part, the molecule after the results:

Row | DC50 [1] [nM] | OCI-LY10 % IRAK4 Degradation (0.01 uM) [2] | OCI-LY10 % IRAK4 Degradation (0.1 uM) [2] | OCI-LY10 % IRAK4 Degradation (1 uM) [2] | SMILES
13 | < 50 |  |  |  | NC(=O)c1nn(-c2ccc(C(=O)NCCOCCCOCCNc3cccc4c3C(=O)N(C3CCC(=O)NC3=O)C4=O)cc2)cc1NC(=O)c1coc(-c2ccnc(NCC3CC3)c2)n1 (centres unmarked) [I-213]
14 | > 1000 |  |  |  | O=C1CCC(N2C(=O)c3cccc(NCCCCNCCCNC(=O)c4ccc(-n5cc(NC(=O)c6coc(-c7ccnc(NCC8CC8)c7)n6)c(C(F)(F)F)n5)cc4)c3C2=O)C(=O)N1 (centres unmarked) [I-218]
15 | < 50 |  |  |  | Cn1c(=O)n(C2CCC(=O)NC2=O)c2cccc(CCCOCCOCCNC(=O)c3ccc(-n4cc(NC(=O)c5coc(-c6ccnc(NCC7CC7)c6)n5)c(C(F)F)n4)cc3)c21 (centres unmarked) [I-253]
16 | 100 to 500 |  |  |  | O=C1CCC(N2C(=O)c3cccc(NCCOCCOCCNC(=O)c4ccc(-n5cc(NC(=O)c6coc(-c7ccnc(NCC(F)(F)F)c7)n6)c(C(F)F)n5)cc4)c3C2=O)C(=O)N1 (centres unmarked) [I-261]
17 | < 50 |  |  |  | O=C1CCC(N2C(=O)c3cccc(NC4CCN(CCOCCNC(=O)c5ccc(-n6cc(NC(=O)c7coc(-c8ccnc(NCC9CC9)c8)n7)c(C(F)F)n6)cc5)CC4)c3C2=O)C(=O)N1 (centres unmarked) [I-268]
18 | 50 to 100 |  |  |  | O=C1CCC(N2C(=O)c3cccc(N4CCN(CCOCCOCCNC(=O)c5ccc(-n6cc(NC(=O)c7coc(-c8ccnc(NCC9CC9)c8)n7)c(C(F)F)n6)cc5)CC4)c3C2=O)C(=O)N1 (centres unmarked) [I-273]
19 |  | B (>20-50% degradation) | B (>20-50% degradation) | B (>20-50% degradation) | NC(=O)c1nn(-c2ccc(C(=O)NCCOCCOCCNc3cccc4c3C(=O)N(C3CCC(=O)NC3=O)C4=O)cc2)cc1NC(=O)c1coc(-c2ccnc(C3CC3)c2)n1 (centres unmarked) [I-424]
20 |  | C (<20% degradation) | C (<20% degradation) | C (<20% degradation) | NC(=O)c1nn(CCCCCCOCCOCCNc2cccc3c2C(=O)N(C2CCC(=O)NC2=O)C3=O)cc1NC(=O)c1coc(-c2ccnc(NCC3CC3)c2)n1 (centres unmarked) [I-435, N-[3-carbamoyl-1-[6-[2-[2-[[2-(2,6-dioxo-3-piperidyl)-1,3-dioxo-isoindolin-4-yl]amino]ethoxy]ethoxy]hexyl]pyrazol-4-yl]-2-[2-(cyclopropylmethylamino)-4-pyridyl]oxazole-4-carboxamide]
